Patent publication US10273487B2, “Transfection vector for pathogenic amoebae and uses thereof” (priority 2017, dated 2019)
Converted amounts (≈) assume the structure as drawn. Like-named read-outs stand apart in the source and are kept apart here.

What was measured:
N. fowleri [1] = test: MTS viability assays in N. fowleri; parameters: IC50 Value / IC90 Value: unit not given beside the values; conditions: for IC50 Value / IC90 Value / IC95 Value: MTS viability assay, N. fowleri, Table 1, unit not given
N. fowleri [2] = test: Preliminary experiments on natural resistance of N. fowleri to selection marker
Description: Five different selection markers were screened for their suitability to use in an N. fowleri transfection system. […] Hygromycin was used in subsequent studies as the selectable marker, partly due to its easy use in other eukaryotic transfection systems.

Molecule	IC50 Value (N. fowleri [1])	IC90 Value (N. fowleri [1])	IC95 Value (N. fowleri [1])	resistance of N. fowleri to the selection marker (N. fowleri [2])	IC50 (N. fowleri [1]; Naegleria fowleri, read-out: IC50 Value) [µg/mL]	IC50 (N. fowleri [1]; Naegleria fowleri, read-out: IC50 values) [µg/mL]	IC90 (N. fowleri [1]; Naegleria fowleri, read-out: IC90 Value) [µg/mL]
neomycin	681.1	2385.3	3078.4	natural resistance	–	–	–
bleomycin	0.49	1.62	2.10	–	–	–	–
COc1ccc(C[C@H](N)C(=O)N[C@H]2[C@@H](O)[C@H](n3cnc4c(N(C)C)ncnc43)O[C@@H]2CO)cc1 [puromycin]	–	–	1.91	–	0.58 (≈ 1.23 µM)	0.6 (≈ 1.27 µM)	1.49 (≈ 3.16 µM)
nourseothricin	26.5	165.4	218.7	–	–	–	–
